Measured values reported in patent CN110711192A, “色氨酸增强对革兰氏阴性菌杀菌作用的应用” (Shandong University, priority 2018, dated 2020).
Values after ≈ are worked out from the molar mass of the structure shown.

Legend:
[1] = system: resistant strain EY1 [抗性菌EY1]; test: Minimum inhibitory concentration, resistant strain EY1; type: cell-based; conditions: serial dilution, 96-well plate, broth
[2] = system: sensitive strain MG1655 [敏感菌株MG1655]; test: Minimum inhibitory concentration, sensitive strain MG1655; type: cell-based; conditions: Escherichia coli, serial dilution, 96-well plate, broth
[3] = system: MG1655 drug-tolerant bacteria [耐药菌]; test: Killing of drug-tolerant bacteria (viable count); type: cell-based, Escherichia coli; conditions: after gentamicin 60 mg/L or kanamycin 40 mg/L 5 h; then antibiotic + 5 mM tryptophan 5 h; printed as can reach (可以达到)
[4] = system: MG1655; test: Uptake of Texas Red-labelled gentamicin (flow cytometry); type: cell-based, Escherichia coli; conditions: log and stationary phase, 0, 1, 5, 10 mM tryptophan
[5] = system: MG1655; test: Intracellular reactive oxygen species (H2DCFDA); type: cell-based, Escherichia coli; conditions: log and stationary phase; 60 mg/L gentamicin alone or with 5 mM tryptophan, 1 h
[6] = system: Escherichia coli MG1655 [大肠杆菌MG1655]; test: Bactericidal effect of antibiotic with or without tryptophan (viable count); type: cell-based
[7] = system: MG1655; test: Rate of generation of drug-tolerant bacteria (viable count); type: cell-based, Escherichia coli; conditions: cultures of 3 to 9 h; gentamicin 60 mg/L and kanamycin 40 mg/L 5 h, then various tryptophan concentrations 30 min; concentration-dependent; printed as up to (可达)

Row | SMILES | MIC [1] | MIC [2] | bactericidal efficiency against drug-tolerant bacteria [3] | bacterial uptake of antibiotic [4] | intracellular reactive oxygen species level [5] | increase of bactericidal effect versus group without tryptophan ([6]; 5 mM tryptophan with gentamicin 3 mg/L and MIC 4 mg/L, 24 h, logarithmic phase) | increase of bactericidal effect ([6]; 5 mM tryptophan with kanamycin 1.5 mg/L to MIC 3.5 mg/L, 24 h, logarithmic phase) | increase of bactericidal efficiency ([6]; stationary phase MG1655, 5 mM tryptophan with gentamicin 60 mg/L or kanamycin 40 mg/L, 1 h per figure legend, 24 h per example) | reduction of generation of drug-tolerant bacteria [7]
1 | NC[C@H]1O[C@H](O[C@H]2[C@H](O)[C@@H](O[C@H]3O[C@H](CO)[C@@H](O)[C@H](N)[C@H]3O)[C@H](N)C[C@@H]2N)[C@H](O)[C@@H](O)[C@@H]1O [卡那霉素] | 220 µg/mL (≈ 454 µM) | 3.5 µg/mL (≈ 7.22 µM) |  |  |  |  |  |  | 
2 | N[C@@H](Cc1c[nH]c2ccccc12)C(=O)O [色氨酸] |  |  | 80-90% | 能够提升细菌对于抗生素的吸收,并呈现剂量依赖性 | 能够提高胞内活性氧的水平 | 100 fold | 10-100 fold | ~10 fold | 10-1000 fold
